{"source": "paper PMC5516028", "about": "“Molecular tools for GABAA receptors: High affinity ligands for β1-containing subtypes” (Scientific Reports, 2017)", "key": {"[1]": {"biological_target": "T1, α1β1γ1 GABAA receptors (Rattus norvegicus, UniProt P15431+P62813)", "T1 construct": "expressed in transfected cells; host or cells: Xenopus laevis oocytes, mRNA injected", "T1 sequence (P62813 28-455)": "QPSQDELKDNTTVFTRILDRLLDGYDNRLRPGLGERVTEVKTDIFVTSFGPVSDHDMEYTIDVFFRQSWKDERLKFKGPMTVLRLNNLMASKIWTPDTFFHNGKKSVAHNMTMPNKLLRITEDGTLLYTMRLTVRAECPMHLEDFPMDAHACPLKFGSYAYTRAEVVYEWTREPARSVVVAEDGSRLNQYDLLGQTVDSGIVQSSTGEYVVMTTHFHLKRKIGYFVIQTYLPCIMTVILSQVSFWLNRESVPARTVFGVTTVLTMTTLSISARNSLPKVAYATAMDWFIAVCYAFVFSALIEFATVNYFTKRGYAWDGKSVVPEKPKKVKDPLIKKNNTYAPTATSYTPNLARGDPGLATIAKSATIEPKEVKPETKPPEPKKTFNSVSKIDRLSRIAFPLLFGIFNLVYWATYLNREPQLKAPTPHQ", "T1 sequence (P15431 26-474)": "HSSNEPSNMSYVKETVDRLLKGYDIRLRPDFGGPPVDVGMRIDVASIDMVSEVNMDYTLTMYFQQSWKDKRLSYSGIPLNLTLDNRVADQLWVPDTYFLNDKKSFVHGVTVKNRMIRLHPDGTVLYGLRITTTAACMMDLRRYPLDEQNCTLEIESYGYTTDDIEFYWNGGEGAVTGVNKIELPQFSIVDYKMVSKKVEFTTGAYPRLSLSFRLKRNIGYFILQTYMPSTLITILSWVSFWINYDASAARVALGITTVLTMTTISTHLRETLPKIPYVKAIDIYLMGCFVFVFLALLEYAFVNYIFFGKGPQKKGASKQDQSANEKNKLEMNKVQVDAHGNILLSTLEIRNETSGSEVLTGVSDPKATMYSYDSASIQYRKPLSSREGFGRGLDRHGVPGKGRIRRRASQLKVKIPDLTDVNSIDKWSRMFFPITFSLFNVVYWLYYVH", "T1 sequence (P23574 36-465 partner limits assumed)": "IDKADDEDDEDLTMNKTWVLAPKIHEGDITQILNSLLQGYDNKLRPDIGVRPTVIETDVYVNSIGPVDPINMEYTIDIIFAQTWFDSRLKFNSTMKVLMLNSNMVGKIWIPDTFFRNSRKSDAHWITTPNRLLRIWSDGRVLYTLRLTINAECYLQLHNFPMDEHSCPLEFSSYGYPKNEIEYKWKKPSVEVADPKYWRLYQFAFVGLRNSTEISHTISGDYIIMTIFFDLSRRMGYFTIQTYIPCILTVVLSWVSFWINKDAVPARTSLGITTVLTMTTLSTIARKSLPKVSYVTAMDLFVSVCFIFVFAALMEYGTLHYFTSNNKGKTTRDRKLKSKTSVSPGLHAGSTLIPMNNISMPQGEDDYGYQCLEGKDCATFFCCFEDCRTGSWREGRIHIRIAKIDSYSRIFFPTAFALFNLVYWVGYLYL", "test": "Two electrode voltage clamp in Xenopus laevis oocytes, α1β1γ1", "assay_type": "cell-based", "text": "cDNA’s of rat GABAA receptor subunits α1, α4, β1, β2, β3 and γ2S were cloned as described. cDNAs of the rat subunits α2, α3 and α5 were gifts from P. Malherbe, that of α6 and γ1 were gifts of P. Seeburg and that of δ was a gift of C. Czajkowski. The mutants were constructed using the Q5 Site-Directed Mutagenesis Kit (New England Biolabs) following manufacturer’s instruction. We used the wild-type rat β3-pCI vector as template and the primers […] and […] resulting in a substitution of amino acid N41 (AAC) to R (AGG). We used the wild-type rat β1-pCI vector as template and the primers […] and […] resulting in a substitution of amino acid R41 (CGG) to N (AAC). The mutated subunits were confirmed by sequencing.\nIn vitro transcription of mRNA was based on the cDNA expression vectors encoding for rat GABAA receptor subunits α1–6, β1-3, γ1,2, δ and the two β mutants (β1R41N and β3N41R)[40]. After linearizing the cDNA vectors with appropriate restriction endonucleases, the cDNA was purified and concentrated with the DNA Clean and Contentrator ^TM Kit (Zymoresearch, Catalog No. D4005). Capped transcripts of the purified cDNA were produced using the mMESSAGE mMACHINE® T7 transcription kit (Ambion, TX, USA) and polyadenylated using the Ambion PolyA tailing kit (Ambion). After transcription and polyadenylation the RNA was purified with the MEGAclear ^TM Kit (Ambion, Catalog No. AM1908). The final RNA concentration was measured on NanoDrop® ND-1000 and finally diluted and stored in diethylpyrocarbonate-treated water at −80 °C. For the microinjection, the RNA of αβ receptor combinations was mixed at 1:1 ratio (which leads to αβ receptors that consist of predominantly 3 beta and 2 alpha subunits[27]), for αkβlγm (k = 1–3, l = 1, 3, m = 1, 2) receptors at 1:1:5 ratio, for αkβ3γ2 (k = 4–6) and αkβlδ (k = 1, 4 and 6, l = 1, 3) receptor combinations at 3:1:5 ratio.\nMature female Xenopus laevis (Nasco, WI) were anesthetized in a bath of ice-cold 0.17% Tricain (Ethyl-m-aminobenzoate, Sigma, MO) before decapitation in full accordance with all rules of the Austrian animal protection law (see http://www.ris.bka.gv.at/Dokumente/BgblAuth/BGBLA_2012_I_114/BGBLA_2012_I_114.pdf) and the Austrian animal experiment by-laws (see https://www.ris.bka.gv.at/Dokumente/BgblAuth/BGBLA_2012_II_522/BGBLA_2012_II_522.pdf) which implement the European Directive 2010/63/EU (see http://eur-lex.europa.eu/LexUriServ/LexUriServ.do?uri=OJ:L:2010:276:0033:0079:en:PDF) into the Austrian law (all information accessed on July 27, 2016). The frog’s ovaries were transferred to ND96 medium (96 mM NaCl, 2 mM KCl, 1 mM MgCl2, 5 mM HEPES; pH 7.5). Stage 5–6 oocytes with the follicle cell layer around them were roughly dissected with forceps into packages of 10–15 cells and washed in Ca^2+-free ND96 medium. Cells were then digested with collagenase (type IA, Sigma, NO, 1 mg/mL ND96) at 18 °C shaking at 30 rpm for 30–60 minutes and gently defolliculated with the aid of a glass pipette with appropriate tip diameter and a platinum loop. Defolliculated cells were stored at 18 °C for at least 6 hours in ND96 solution containing penicillin G (10000 IU/100 mL) and streptomycin (10 mg/100 mL) in order to preselect and exclude damaged cells from further treatment. Healthy defolliculated oocytes were injected with an aqueous solution of mRNA. A total of 4.5 ng of mRNA per oocyte was injected with a Nanoject II (Drummond). After injection of mRNA, oocytes were incubated at 18 °C (ND96 + antibiotic) for 2–3 days for αβ receptors and for 3–4 days for αβγ or αβδ receptors before recording. When cells were measured at later time points, oocytes were stored at +4 °C instead of 18 °C.\nFor electrophysiological recordings, oocytes were placed on a nylon-grid in a bath of Ca^2+-containing NDE solution medium [96 mM NaCl, 5 mM HEPES-NaOH (pH 7.5), 2 mM KCl, 1 mM MgCl2, 1.8 mM CaCl2]."}, "[2]": {"biological_target": "T2, α1β3 GABAA receptors (Rattus norvegicus, UniProt P62813+P63079)", "T2 construct": "expressed in transfected cells; host or cells: Xenopus laevis oocytes, mRNA injected", "T2 sequence (P62813 28-455)": "as the sequence (P62813 28-455) above", "T2 sequence (P63079 26-473)": "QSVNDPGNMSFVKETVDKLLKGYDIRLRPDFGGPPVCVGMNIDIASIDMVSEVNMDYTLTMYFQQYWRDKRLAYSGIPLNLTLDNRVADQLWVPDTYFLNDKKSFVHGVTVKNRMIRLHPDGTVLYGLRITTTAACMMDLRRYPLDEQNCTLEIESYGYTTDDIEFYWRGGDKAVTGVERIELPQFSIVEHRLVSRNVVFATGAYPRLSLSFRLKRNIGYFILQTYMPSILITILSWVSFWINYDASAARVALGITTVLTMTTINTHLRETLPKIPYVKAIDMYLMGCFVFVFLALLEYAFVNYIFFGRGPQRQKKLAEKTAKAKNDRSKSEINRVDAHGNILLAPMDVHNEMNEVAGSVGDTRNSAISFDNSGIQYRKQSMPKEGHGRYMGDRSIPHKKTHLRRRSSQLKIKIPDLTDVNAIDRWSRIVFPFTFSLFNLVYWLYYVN", "design": "method as in earlier work", "details": "published data, ref 1 (Supplementary References), read-out: Approximate EC50; cited from earlier work"}, "[3]": {"biological_target": "T3, α3β3γ2 GABAA receptors (Rattus norvegicus, UniProt P20236+P63079)", "T3 construct": "expressed in transfected cells; host or cells: Xenopus laevis oocytes, mRNA injected", "T3 sequence (P20236 29-493)": "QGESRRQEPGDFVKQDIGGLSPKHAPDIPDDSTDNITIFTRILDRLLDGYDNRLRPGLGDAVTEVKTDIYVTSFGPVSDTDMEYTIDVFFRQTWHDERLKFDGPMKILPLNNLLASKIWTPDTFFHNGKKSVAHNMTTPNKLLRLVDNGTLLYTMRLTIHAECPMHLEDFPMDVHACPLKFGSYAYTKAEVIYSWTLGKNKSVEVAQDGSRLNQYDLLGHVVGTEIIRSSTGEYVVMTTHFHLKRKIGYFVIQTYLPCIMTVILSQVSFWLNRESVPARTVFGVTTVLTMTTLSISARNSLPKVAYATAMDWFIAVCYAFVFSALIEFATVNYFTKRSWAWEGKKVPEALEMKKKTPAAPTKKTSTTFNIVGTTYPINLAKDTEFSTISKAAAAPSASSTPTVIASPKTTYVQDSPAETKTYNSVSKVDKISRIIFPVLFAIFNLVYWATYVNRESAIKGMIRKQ", "T3 sequence (P63079 26-473)": "as the sequence (P63079 26-473) above", "T3 sequence (P18508 39-466 partner)": "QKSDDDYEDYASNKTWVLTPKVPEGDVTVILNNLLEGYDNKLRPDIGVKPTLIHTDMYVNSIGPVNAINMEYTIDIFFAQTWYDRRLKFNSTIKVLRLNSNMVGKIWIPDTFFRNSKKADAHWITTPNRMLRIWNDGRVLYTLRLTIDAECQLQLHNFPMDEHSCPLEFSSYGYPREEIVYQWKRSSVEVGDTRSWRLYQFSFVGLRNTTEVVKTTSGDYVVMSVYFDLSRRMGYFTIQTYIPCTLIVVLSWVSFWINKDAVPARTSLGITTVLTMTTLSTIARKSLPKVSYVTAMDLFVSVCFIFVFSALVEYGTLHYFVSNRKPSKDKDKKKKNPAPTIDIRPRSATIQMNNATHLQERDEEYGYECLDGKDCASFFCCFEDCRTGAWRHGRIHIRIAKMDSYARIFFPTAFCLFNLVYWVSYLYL", "design": "method as in earlier work", "details": "published data, ref 1 (Supplementary References), read-out: Approximate EC50; cited from earlier work"}, "[4]": {"biological_target": "T4, α4β3γ2 GABAA receptors (Rattus norvegicus, UniProt P28471+P63079)", "T4 construct": "expressed in transfected cells; host or cells: Xenopus laevis oocytes, mRNA injected", "T4 sequence (P28471 36-552)": "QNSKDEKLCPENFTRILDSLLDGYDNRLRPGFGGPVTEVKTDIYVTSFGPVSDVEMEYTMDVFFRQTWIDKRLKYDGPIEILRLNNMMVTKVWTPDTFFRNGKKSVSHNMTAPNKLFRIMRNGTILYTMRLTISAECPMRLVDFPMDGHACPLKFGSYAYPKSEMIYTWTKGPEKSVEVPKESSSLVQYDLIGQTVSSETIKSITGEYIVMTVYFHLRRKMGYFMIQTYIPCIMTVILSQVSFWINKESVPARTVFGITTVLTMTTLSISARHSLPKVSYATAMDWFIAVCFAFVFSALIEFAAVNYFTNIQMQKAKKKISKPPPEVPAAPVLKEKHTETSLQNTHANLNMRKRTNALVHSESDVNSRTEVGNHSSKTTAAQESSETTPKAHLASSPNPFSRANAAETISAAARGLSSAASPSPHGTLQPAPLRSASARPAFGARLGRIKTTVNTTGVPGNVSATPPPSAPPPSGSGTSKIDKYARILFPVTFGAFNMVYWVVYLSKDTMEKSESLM", "T4 sequence (P63079 26-473)": "as the sequence (P63079 26-473) above", "T4 sequence (P18508 39-466 partner)": "as the sequence (P18508 39-466 partner) above", "design": "method as in earlier work", "details": "published data, ref 1 (Supplementary References), read-out: Approximate EC50; cited from earlier work"}, "[5]": {"biological_target": "T5, α5β3γ2 GABAA receptors (Rattus norvegicus, UniProt P19969+P63079)", "T5 construct": "expressed in transfected cells; host or cells: Xenopus laevis oocytes, mRNA injected", "T5 sequence (P19969 32-464 limits assumed)": "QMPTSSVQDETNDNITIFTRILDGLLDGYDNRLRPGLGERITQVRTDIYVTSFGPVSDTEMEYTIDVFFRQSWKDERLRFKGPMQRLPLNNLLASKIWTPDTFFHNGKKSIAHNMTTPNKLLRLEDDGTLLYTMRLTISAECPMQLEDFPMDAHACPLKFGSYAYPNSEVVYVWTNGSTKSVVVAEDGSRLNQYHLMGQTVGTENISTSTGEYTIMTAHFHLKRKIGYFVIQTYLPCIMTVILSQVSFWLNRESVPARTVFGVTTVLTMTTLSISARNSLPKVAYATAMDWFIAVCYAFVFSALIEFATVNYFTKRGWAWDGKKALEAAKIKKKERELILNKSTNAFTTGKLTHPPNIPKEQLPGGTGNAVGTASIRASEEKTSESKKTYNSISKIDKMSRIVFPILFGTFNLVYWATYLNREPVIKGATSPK", "T5 sequence (P63079 26-473)": "as the sequence (P63079 26-473) above", "T5 sequence (P18508 39-466 partner)": "as the sequence (P18508 39-466 partner) above", "design": "method as in earlier work", "details": "published data, ref 1 (Supplementary References), read-out: Approximate EC50; cited from earlier work"}, "[6]": {"biological_target": "T6, α2β3 GABAA receptors (Rattus norvegicus, UniProt P23576+P63079)", "T6 construct": "expressed in transfected cells; host or cells: Xenopus laevis oocytes, mRNA injected", "T6 sequence (P23576 29-451)": "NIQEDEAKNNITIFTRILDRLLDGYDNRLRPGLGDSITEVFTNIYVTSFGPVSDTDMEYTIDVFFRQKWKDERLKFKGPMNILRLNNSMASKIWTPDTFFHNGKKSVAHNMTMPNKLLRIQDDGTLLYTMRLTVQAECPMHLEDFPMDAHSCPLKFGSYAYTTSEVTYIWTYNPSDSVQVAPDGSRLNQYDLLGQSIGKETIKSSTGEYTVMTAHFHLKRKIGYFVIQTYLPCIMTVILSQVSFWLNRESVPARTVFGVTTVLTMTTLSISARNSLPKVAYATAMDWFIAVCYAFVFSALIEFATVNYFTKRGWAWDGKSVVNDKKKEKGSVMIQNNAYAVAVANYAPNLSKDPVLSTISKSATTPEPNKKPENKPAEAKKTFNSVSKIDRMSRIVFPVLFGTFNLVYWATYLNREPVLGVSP", "T6 sequence (P63079 26-473)": "as the sequence (P63079 26-473) above", "design": "method as in earlier work", "details": "published data, ref 1 (Supplementary References), read-out: Approximate EC50; cited from earlier work"}, "[7]": {"biological_target": "T7, α3β3 GABAA receptors (Rattus norvegicus, UniProt P20236+P63079)", "T7 construct": "expressed in transfected cells; host or cells: Xenopus laevis oocytes, mRNA injected", "T7 sequence (P20236 29-493)": "as the sequence (P20236 29-493) above", "T7 sequence (P63079 26-473)": "as the sequence (P63079 26-473) above", "design": "method as in earlier work", "details": "published data, ref 1 (Supplementary References), read-out: Approximate EC50; cited from earlier work"}, "[8]": {"biological_target": "T8, α5β3 GABAA receptors (Rattus norvegicus, UniProt P19969+P63079)", "T8 construct": "expressed in transfected cells; host or cells: Xenopus laevis oocytes, mRNA injected", "T8 sequence (P19969 32-464 limits assumed)": "as the sequence (P19969 32-464 limits assumed) above", "T8 sequence (P63079 26-473)": "as the sequence (P63079 26-473) above", "design": "method as in earlier work", "details": "published data, ref 1 (Supplementary References), read-out: Approximate EC50; cited from earlier work"}, "[9]": {"biological_target": "α1β1γ2 GABAA receptors", "design": "method as in earlier work", "details": "published data, ref 1 (Supplementary References), read-out: Approximate EC50; cited from earlier work"}, "[10]": {"biological_target": "α5β1γ2 GABAA receptors", "design": "method as in earlier work", "details": "published data, ref 1 (Supplementary References), read-out: Approximate EC50; cited from earlier work"}, "[11]": {"biological_target": "α2β2γ2 GABAA receptors", "design": "method as in earlier work", "details": "published data, ref 1 (Supplementary References), read-out: Approximate EC50; cited from earlier work"}, "[12]": {"biological_target": "α3β2γ2 GABAA receptors", "design": "method as in earlier work", "details": "published data, ref 1 (Supplementary References), read-out: Approximate EC50; cited from earlier work"}, "[13]": {"biological_target": "α5β2γ2 GABAA receptors", "design": "method as in earlier work", "details": "published data, ref 1 (Supplementary References), read-out: Approximate EC50; cited from earlier work"}}, "data": [{"compound": "COc1ccc(-n2nc3c4cc(Cl)ccc4[nH]cc-3c2=O)cc1", "note": "[Compound 1, 8-Chloro-2-(4-methoxyphenyl)-2H-pyrazolo[4,3-c]quinolin-3(5H)-one]", "values": [{"measurement": "EC50", "setting": "[1]", "result": 80, "unit": "nM"}, {"measurement": "activity at 0.001 µM", "setting": "[1]; read-out: efficacy, % of control current (GABA EC3-5 = 100%), α1β1γ1, 1 nM", "result": "110 ± 9.9", "unit": "%"}, {"measurement": "activity at 1 µM", "setting": "[1]; read-out: efficacy, % of control current (GABA EC3-5 = 100%), α1β1γ1, 1 µM", "result": "320 ± 17.9", "unit": "%"}, {"measurement": "activity at 10 µM", "setting": "[1]; read-out: efficacy, % of control current (GABA EC3-5 = 100%), α1β1γ1, 10 µM", "result": "300 ± 20.8", "unit": "%"}, {"measurement": "Hill slope (nH)", "setting": "[1]; α1β1γ1", "result": "1.1±0.4"}, {"measurement": "EC50", "setting": "[2]", "result": "~1600", "unit": "nM"}, {"measurement": "EC50", "setting": "[3]", "result": "~1500", "unit": "nM"}, {"measurement": "EC50", "setting": "[4]", "result": "~900", "unit": "nM"}, {"measurement": "EC50", "setting": "[5]", "result": "~600", "unit": "nM"}, {"measurement": "EC50", "setting": "[6]", "result": "~3", "unit": "µM"}, {"measurement": "EC50", "setting": "[7]", "result": "~1800", "unit": "nM"}, {"measurement": "EC50", "setting": "[8]", "result": "~600", "unit": "nM"}, {"measurement": "EC50", "setting": "[9]", "result": "~100", "unit": "nM"}, {"measurement": "EC50", "setting": "[10]", "result": "~50", "unit": "nM"}, {"measurement": "EC50", "setting": "[11]", "result": "~3.5", "unit": "µM"}, {"measurement": "EC50", "setting": "[12]", "result": "~2100", "unit": "nM"}, {"measurement": "EC50", "setting": "[13]", "result": "~3000", "unit": "nM"}]}]}
